Reference: ChEMBL document CHEMBL1201862, “PubChem BioAssay data set” (2004)
Calls of active or inactive are those of the source.

Experiments:
[1] = IGROV1 cell killing – plate reader, dry powder samples, PAX8 inhibitor project, dose response (AID 743043); type: functional, cell-based; conditions: IGROV-1
[2] = OVCAR-3 cell viability loss – plate reader, dry powder samples, PAX8 inhibitor project, dose response (AID 743044); type: functional, cell-based
[3] = CMV-driven luciferase expression suppression in HEK293 – cell-based, luminescence, dry powder, counter-screen for Pax8 inhibitor project, dose response (AID 743020); type: functional
[4] = OVCAR8 cell viability loss – plate reader, dry powder samples, PAX8 project, dose response (AID 743197); type: functional, cell-based; conditions: OVCAR-8
Paired box protein Pax-8 = Paired box protein Pax-8 (Homo sapiens, UniProt Q06710); test: PAX8 transcriptional activity inhibition in RMG-I – RMG-I cells, luciferase, cherry-pick, dose response (AID 687027); type: functional, cell-based;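 also: luciferase reporter driven by Pax8 target thyroperoxidase promoter measured by SteadyGlo luminescence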
Paired box protein Pax-8, sequence (Q06710 whole entry): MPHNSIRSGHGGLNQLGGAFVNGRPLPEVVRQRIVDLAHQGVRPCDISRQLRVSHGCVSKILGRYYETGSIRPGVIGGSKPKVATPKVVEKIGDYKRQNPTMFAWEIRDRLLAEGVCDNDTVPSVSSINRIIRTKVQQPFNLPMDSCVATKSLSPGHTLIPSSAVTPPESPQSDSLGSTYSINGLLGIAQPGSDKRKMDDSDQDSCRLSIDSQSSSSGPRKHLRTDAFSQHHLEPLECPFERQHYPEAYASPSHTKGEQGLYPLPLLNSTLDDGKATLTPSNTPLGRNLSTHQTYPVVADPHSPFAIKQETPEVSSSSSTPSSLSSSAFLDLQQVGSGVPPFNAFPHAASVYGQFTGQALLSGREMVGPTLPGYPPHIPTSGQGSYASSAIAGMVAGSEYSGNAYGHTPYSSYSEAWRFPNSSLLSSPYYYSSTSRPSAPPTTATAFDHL

[5] = general mammalian cell viability loss – inhibitor set, cherry-pick, set 2, cytotoxicity control for miR-122 modulator project, dose response (AID 720697); type: functional, cell-based
[6] = target: Protein disulfide-isomerase (Homo sapiens, UniProt P07237); test: inhibition of PDI-mediated insulin reduction – biochemical, turbidity, dry powder samples, set 2, confirmation (AID 652146)
Protein disulfide-isomerase, sequence (P07237 whole entry): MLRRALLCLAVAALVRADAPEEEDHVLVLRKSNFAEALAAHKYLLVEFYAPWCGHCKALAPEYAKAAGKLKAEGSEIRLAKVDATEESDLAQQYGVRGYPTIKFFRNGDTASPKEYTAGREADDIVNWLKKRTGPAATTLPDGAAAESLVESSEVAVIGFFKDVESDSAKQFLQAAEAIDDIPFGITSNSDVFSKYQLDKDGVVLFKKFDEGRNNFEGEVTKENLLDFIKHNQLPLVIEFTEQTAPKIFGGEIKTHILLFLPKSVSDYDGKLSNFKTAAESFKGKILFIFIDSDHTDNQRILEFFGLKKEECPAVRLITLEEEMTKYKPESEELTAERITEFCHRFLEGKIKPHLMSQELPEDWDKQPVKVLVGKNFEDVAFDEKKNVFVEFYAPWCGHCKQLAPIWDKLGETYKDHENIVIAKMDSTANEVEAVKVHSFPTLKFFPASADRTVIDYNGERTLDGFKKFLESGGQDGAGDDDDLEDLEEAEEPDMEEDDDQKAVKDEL

[7] = loss of viability in HeLa cells – cell-based, ATP luminescence, dry powder, cytotoxicity control, dose response (AID 652117); type: functional
[8] = inhibition of bursicon-driven LGR2 cAMP signaling – cell-based, HEK293, CRE-luciferase reporter, cherry pick, dose response (AID 743342); type: functional
[9] = T. cruzi growth inhibition in host cells, dose response, cell-based, plate reader, dry powder, set 2 (AID 652275); type: functional
BJ [10] = test: BJ-TERT-LT-ST fibroblast viability loss – cell-based, RAS-independent, luminescence, dose response (AID 1935); type: functional; conditions: Homo sapiens;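 also: BJ fibroblasts immortalized with TERT plus LT and ST oncogenes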
[11] = target: T1, Sentrin-specific protease 6 (Homo sapiens, UniProt Q9GZR1); type: functional;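 also: Luminescence-based dose-response confirmatory assay of SENP6 inhibition, following up an ultra-high-throughput screen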
T1 sequence (Q9GZR1 whole entry): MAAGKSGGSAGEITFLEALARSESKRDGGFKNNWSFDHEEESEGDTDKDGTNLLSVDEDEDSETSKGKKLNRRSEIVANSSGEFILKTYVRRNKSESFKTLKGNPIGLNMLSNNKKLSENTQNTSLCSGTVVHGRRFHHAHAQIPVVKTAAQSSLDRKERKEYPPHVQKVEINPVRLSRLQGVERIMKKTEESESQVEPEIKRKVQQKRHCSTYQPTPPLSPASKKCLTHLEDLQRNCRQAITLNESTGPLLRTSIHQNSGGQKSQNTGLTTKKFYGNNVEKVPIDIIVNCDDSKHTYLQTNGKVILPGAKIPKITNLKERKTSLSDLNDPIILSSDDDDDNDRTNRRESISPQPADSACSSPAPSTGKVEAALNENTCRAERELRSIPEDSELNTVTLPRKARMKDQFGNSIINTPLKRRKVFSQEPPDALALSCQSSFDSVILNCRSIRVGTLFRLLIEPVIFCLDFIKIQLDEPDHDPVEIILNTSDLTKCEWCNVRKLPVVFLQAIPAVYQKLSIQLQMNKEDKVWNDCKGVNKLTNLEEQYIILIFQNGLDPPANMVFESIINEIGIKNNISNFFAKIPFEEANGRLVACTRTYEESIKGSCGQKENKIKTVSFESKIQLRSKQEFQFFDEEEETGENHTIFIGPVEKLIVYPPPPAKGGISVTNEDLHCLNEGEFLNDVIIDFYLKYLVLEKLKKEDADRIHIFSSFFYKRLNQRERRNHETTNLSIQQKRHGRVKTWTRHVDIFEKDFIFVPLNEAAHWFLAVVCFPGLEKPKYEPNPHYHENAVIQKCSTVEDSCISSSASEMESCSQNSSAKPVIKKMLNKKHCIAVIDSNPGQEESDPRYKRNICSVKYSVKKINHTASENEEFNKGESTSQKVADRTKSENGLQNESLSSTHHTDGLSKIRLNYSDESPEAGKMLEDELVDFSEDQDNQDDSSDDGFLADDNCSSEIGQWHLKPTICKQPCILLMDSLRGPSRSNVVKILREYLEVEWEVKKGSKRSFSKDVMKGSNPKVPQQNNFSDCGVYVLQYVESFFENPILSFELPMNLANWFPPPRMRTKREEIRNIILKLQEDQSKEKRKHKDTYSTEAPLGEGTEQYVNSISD

[12] = NIH3T3 cell viability loss – ATP luminescence, mouse fibroblasts, counter-screen, dose response (AID 2010); type: functional, cell-based;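 also: cells exposed to compound for about 90 hours before reading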
cells [13] = type: functional, cell-based
INS1 = test: INS-1E survival protection against cytokine death – cell-based, luminescence, retest, dose response (AID 449756); type: functional; conditions: Rattus norvegicus;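 also: cell death triggered by IL-1 beta plus TNF-alpha plus IFN-gamma mixture; protective hits raise ATP signal compared with cytokine alone wells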
Caspase-3 = target: T2, Caspase-3 (Homo sapiens, UniProt P42574); type: functional;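 also: Dose-response selectivity test against caspase-3 for candidate inhibitors of sentrin-specific proteases (SENPs)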
T2 sequence (P42574 whole entry): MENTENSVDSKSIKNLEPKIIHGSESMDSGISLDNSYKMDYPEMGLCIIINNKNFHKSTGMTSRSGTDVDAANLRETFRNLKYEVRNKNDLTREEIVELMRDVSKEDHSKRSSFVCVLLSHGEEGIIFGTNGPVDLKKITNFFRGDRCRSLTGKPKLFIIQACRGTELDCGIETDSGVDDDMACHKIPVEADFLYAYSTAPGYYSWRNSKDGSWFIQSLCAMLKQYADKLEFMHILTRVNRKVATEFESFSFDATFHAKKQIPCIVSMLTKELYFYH

[14] = Trypanosoma cruzi growth suppression in host cells – NIH3T3 host cells, beta-gal luminescence, confirmation (AID 2044); type: functional, cell-based;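 also: intracellular parasites grown in NIH/3T3 mouse fibroblasts as host cells; luminescent beta-galactosidase reporter signal from transgenic T. cruzi replicating inside host cells; inhibitors lower the luminescence signal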
[15] = Luminescence Cell-Based Dose Confirmation HTS to Identify Inhibitors of Platelet Dense Granule Release. [Related pubchem assays: 1663 (Primary HTS), 1678 (Summary of Project)]; type: functional
BJ [16] = test: BJ-TERT fibroblast viability loss – cell-based, RAS-independent, luminescence, dose response (AID 1933); type: functional; conditions: Homo sapiens
[17] = target: T3, Sentrin-specific protease 7 (Homo sapiens, UniProt Q9BQF6); type: functional;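 also: Luminescence-based dose-response confirmation of ultra-high-throughput screening hits, measuring inhibition of SENP7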
T3 sequence (Q9BQF6 whole entry): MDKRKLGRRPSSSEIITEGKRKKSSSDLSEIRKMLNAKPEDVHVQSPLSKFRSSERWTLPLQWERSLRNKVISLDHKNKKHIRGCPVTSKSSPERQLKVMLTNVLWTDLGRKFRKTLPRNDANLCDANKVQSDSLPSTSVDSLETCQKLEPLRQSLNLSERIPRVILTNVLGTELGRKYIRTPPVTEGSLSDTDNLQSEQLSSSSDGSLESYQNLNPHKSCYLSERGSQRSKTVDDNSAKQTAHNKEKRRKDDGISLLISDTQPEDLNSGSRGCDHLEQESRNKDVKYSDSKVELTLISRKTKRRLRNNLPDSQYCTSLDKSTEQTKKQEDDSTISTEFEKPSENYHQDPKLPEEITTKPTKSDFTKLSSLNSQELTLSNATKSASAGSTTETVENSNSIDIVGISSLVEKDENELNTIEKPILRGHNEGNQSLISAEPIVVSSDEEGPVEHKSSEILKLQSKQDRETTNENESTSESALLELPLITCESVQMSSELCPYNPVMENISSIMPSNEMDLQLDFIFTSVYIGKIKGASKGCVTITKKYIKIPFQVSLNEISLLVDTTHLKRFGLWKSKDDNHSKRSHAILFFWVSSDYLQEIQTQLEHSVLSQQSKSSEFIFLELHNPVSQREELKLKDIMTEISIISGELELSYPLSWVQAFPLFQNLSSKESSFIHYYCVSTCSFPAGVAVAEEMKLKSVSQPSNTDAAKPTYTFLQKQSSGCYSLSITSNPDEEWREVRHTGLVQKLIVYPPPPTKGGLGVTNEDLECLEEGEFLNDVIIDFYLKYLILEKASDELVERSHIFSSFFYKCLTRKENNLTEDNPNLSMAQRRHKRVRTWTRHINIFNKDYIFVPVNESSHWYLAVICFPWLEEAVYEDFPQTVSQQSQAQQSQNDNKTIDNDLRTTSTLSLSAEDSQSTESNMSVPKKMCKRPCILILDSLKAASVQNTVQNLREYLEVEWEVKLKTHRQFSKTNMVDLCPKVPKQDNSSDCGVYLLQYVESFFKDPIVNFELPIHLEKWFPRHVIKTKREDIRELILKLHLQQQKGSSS

[18] = target: T4, Sentrin-specific protease 8 (Homo sapiens, UniProt Q96LD8); type: functional;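 also: luminescence read-out of SENP8 inhibition, dose-response confirmation following an ultra-high-throughput screen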
T4 sequence (Q96LD8 whole entry): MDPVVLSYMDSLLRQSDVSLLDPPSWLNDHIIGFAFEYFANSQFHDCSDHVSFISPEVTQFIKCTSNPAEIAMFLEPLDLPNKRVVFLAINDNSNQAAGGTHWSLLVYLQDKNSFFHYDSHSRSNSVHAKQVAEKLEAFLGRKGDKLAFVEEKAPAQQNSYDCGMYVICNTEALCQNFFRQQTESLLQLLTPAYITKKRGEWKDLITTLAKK

[19] = target: Luciferin 4-monooxygenase (Photinus pyralis, UniProt P08659); test: inhibition of purified Photinus pyralis luciferase – biochemical, luminescence, dose response (AID 1891)
Luciferin 4-monooxygenase, sequence (P08659 whole entry): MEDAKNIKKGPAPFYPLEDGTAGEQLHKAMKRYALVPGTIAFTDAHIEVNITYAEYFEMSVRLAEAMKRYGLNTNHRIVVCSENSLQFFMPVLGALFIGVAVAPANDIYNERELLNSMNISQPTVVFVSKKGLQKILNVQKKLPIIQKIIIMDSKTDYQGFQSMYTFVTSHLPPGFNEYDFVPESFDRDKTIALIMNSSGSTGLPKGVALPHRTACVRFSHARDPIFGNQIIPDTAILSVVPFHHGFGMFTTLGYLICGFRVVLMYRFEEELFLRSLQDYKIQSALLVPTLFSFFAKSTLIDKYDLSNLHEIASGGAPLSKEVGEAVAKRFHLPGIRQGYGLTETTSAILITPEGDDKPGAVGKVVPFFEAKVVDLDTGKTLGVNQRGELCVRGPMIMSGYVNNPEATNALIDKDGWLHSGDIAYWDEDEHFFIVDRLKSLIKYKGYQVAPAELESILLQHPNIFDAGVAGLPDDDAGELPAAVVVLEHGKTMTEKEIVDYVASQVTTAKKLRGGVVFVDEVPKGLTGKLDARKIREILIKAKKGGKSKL

[20] = viability loss in HepG2 hepatoma cells – cell-based, ATP luminescence, cherry-pick, activator set 2, cytotoxicity control, dose response (AID 1053143); type: functional
cells [21] = type: functional, cell-based; remark: listed apart in the source
[22] = DRD fibroblast viability loss – cell-based, non-viral oncogenic, luminescence, dose response (AID 1934); type: functional; conditions: Homo sapiens
BJ [23] = test: cells; type: functional, cell-based; conditions: Homo sapiens

C[C@H]1CCCCO[C@H](CN(C)C(=O)c2ccccc2)[C@@H](C)CN([C@@H](C)CO)C(=O)c2cc(NC(=O)Nc3ccc(C(F)(F)F)cc3)ccc2O1
active: AC50 [1] 37.6 µM | AC50 [2] 29.5 µM | AC50 [3] 30.1 µM | AC50 [4] 47.8 µM | AC50 (Paired box protein Pax-8) 9.48 µM

CN1C(=O)c2cc(NC(=O)c3cccs3)ccc2OC[C@H]2O[C@@H](CC(=O)N3CCCCC3)CC[C@H]21
active: AC50 [5] 9.9 µM

CCOC(=O)C1(CCOc2ccccc2)CCN(Cc2cccc(Cl)c2)CC1
inactive: AC50 [6] > 30 µM
active: AC50 [7] 32.3 µM

C[C@H]1CCCCO[C@H](CN(C)C(=O)Nc2cccc3ccccc23)[C@@H](C)CN([C@@H](C)CO)C(=O)c2cc(NS(=O)(=O)c3cn(C)cn3)ccc2O1
active: AC50 [8] 47 µM

CC(C)N1CC2(CN(Cc3ccccc3Cl)C2)Oc2c(NC(=O)c3ccncc3)cccc2C1=O
active: AC50 [9] 0.463 µM

CCN(CC)c1ccc(/C=N/NC(=O)c2ccoc2C)c(O)c1
active: EC50 (BJ [10]) 15.6 µM | IC50 [11] 0.849 µM | EC50 [12] 3.59 µM | EC50 (cells [13]) 7.38 µM | AC50 (INS1) 0.622 µM | IC50 (Caspase-3) 0.942 µM | EC50 [14] 0.83 µM | EC50 [15] 2.06 µM | EC50 (BJ [16]) 3.02 µM | IC50 [17] 0.757 µM | IC50 [18] 1.33 µM | EC50 [19] 0.785 µM | AC50 [20] 9.01 µM | EC50 (cells [21]) 51.7 µM | EC50 [22] 6.96 µM | EC50 (BJ [23]) 6.42 µM
